{"source": "patent US20040192594A1", "about": "(priority 2002, published 2004)", "key": {"Torpedo maramorta AchR": {"target": "Torpedo maramorta AchR (Torpedo marmorata, UniProt P02711)", "design": "Relative Affinity: reference not given here", "conditions": "cited from earlier work"}, "mice [1]": {"tested_on": "mice", "conditions": "mouse, in vivo, sc"}, "mice [2]": {"tested_on": "mice", "conditions": "mouse, in vivo"}, "[3]": {"tested_on": "cell lines in tissue culture"}}, "note": "Like-named read-outs stand apart in the source and are kept apart here.", "data": [{"compound": "COc1cc2c3cc1Oc1cc(ccc1O)C[C@@H]1c4c(cc(OC)c(O)c4Oc4ccc(cc4)C[C@@H]3N(C)CC2)CC[N+]1(C)C", "note": "[d-Tubocurarine]", "values": [{"measurement": "Relative Affinity", "setting": "Torpedo maramorta AchR", "result": 76.5}, {"measurement": "IC50", "setting": "Torpedo maramorta AchR; read-out: IC50", "result": 3.4, "unit": "µM"}]}, {"compound": "alpha cobratoxin", "values": [{"measurement": "Time to death (average)", "setting": "mice [1]", "result": 20.5, "unit": "min"}, {"measurement": "Relative Affinity", "setting": "Torpedo maramorta AchR", "result": "1,529.0"}, {"measurement": "IC50", "setting": "Torpedo maramorta AchR; read-out: IC50", "result": 0.17, "unit": "µM"}, {"measurement": "Paralysis in mice injected with the toxin", "setting": "mice [2]", "result": "very little or no paralysis"}, {"measurement": "Toxicity to cell lines", "setting": "[3]", "result": "not toxic"}]}, {"compound": "alpha Bungarotoxin", "values": [{"measurement": "Relative Affinity", "setting": "Torpedo maramorta AchR", "result": "30,952.0"}, {"measurement": "IC50", "setting": "Torpedo maramorta AchR; read-out: IC50", "result": 0.0084, "unit": "µM"}]}, {"compound": "CN1CCCC1c1cccnc1", "note": "(stereo not drawn) [Nicotine]", "values": [{"measurement": "IC50", "setting": "Torpedo maramorta AchR", "result": 1400, "unit": "µM"}, {"measurement": "Relative Affinity", "setting": "Torpedo maramorta AchR", "result": 0.19}]}, {"compound": "C[N+](C)(C)CCOC(=O)CCCCCCC(=O)OCC[N+](C)(C)C.[I-].[I-]", "note": "[Suderyldicholine]", "values": [{"measurement": "Relative Affinity", "setting": "Torpedo maramorta AchR", "result": 104.0}, {"measurement": "IC50", "setting": "Torpedo maramorta AchR; read-out: IC50", "result": 2.5, "unit": "µM"}]}, {"compound": "C[N+](C)(C)CCOC(N)=O.[Cl-]", "note": "[Carbamylcholinechloride]", "values": [{"measurement": "IC50", "setting": "Torpedo maramorta AchR", "result": 2800, "unit": "µM"}, {"measurement": "Relative Affinity", "setting": "Torpedo maramorta AchR", "result": 0.09}]}]}
